Reference: ChEMBL document CHEMBL1201862, “PubChem BioAssay data set” (2004)
Values belong to the compound of their own block, whether it stands above or below them. Active and inactive are the calls of the source.

Tests used:
[1] = Trypanosoma cruzi growth suppression in host cells – NIH3T3 host cells, beta-gal luminescence, confirmation (AID 2044); format: functional, cell-based;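 note: intracellular parasites grown in NIH/3T3 mouse fibroblasts as host cells; luminescent beta-galactosidase reporter signal from transgenic T. cruzi replicating inside host cells; inhibitors lower the luminescence signal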
[2] = NIH3T3 cell viability loss – ATP luminescence, mouse fibroblasts, counter-screen, dose response (AID 2010); format: functional, cell-based;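 note: cells exposed to compound for about 90 hours before reading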
Cytochrome P450 2C19 = Cytochrome P450 2C19 (Homo sapiens, UniProt P33261); experiment: Cytochrome panel assay with activity outcomes. Panel member name: p450-cyp2c19 Compounds with AC50 equal or less than 10 uM are considered active; format: functional
[3] = Luminescence Cell-Based Dose Retest to Confirm Inhibitors of Cancer Stem Cells. [Related pubchem assays (depositor defined):AID2717, AID2721]; format: functional; conditions: Homo sapiens
Cytochrome P450 3A4 = Cytochrome P450 3A4 (Homo sapiens, UniProt P08684);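 note: CYP3A4 tested as one member of a cytochrome P450 panel screen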
[4] = tested on: Streptococcus sp. 'group A'; experiment: Streptococcus pyogenes SK(-)GAS viability under kanamycin – luminescence, BacTiterGlo, confirmation, counter-screen for streptokinase expression inhibitor project, dose response (AID 1900); format: functional, organism-based
Streptococcus = experiment: GAS UMAA2166 growth inhibition – luminescence, BacTiterGlo, counter-screen for streptokinase expression inhibitor project, dose response (AID 1915); format: functional, organism-based;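 note: potency for reduction of bacterial viability or growth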
Cytochrome P450 1A2 = molecular target: T1, Cytochrome P450 1A2 (Homo sapiens, UniProt P05177);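 note: PubChem cytochrome P450 panel assay, CYP1A2 panel member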
T1 sequence (P05177 whole entry): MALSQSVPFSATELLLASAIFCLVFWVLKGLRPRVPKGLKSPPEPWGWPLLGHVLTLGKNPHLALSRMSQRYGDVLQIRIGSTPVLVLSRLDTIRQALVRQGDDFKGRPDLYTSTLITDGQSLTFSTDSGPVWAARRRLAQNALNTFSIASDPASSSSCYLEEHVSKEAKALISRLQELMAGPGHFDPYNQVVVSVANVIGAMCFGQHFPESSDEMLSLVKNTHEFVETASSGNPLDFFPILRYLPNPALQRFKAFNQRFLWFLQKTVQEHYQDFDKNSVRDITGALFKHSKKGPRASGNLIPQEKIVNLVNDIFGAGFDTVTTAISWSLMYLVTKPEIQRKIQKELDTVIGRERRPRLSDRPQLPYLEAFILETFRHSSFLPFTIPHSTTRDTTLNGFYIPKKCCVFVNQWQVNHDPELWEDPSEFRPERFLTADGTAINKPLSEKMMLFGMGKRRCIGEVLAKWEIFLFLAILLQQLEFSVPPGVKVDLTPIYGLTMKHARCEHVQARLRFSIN

Chain of Cytochrome P450 2C19 (P33261 whole entry): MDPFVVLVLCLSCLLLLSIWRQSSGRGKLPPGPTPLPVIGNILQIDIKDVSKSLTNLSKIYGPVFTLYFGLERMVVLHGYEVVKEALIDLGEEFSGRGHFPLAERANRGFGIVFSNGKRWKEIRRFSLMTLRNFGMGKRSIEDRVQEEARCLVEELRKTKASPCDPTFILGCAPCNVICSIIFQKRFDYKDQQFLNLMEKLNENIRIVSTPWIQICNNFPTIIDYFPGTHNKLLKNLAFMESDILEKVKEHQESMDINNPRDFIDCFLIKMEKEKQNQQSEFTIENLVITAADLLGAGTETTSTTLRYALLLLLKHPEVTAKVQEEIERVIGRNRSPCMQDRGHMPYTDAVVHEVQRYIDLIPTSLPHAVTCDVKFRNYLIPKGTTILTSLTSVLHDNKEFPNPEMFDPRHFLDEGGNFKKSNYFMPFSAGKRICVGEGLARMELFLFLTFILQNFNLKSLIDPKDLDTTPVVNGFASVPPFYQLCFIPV
Chain of Cytochrome P450 3A4 (P08684 whole entry): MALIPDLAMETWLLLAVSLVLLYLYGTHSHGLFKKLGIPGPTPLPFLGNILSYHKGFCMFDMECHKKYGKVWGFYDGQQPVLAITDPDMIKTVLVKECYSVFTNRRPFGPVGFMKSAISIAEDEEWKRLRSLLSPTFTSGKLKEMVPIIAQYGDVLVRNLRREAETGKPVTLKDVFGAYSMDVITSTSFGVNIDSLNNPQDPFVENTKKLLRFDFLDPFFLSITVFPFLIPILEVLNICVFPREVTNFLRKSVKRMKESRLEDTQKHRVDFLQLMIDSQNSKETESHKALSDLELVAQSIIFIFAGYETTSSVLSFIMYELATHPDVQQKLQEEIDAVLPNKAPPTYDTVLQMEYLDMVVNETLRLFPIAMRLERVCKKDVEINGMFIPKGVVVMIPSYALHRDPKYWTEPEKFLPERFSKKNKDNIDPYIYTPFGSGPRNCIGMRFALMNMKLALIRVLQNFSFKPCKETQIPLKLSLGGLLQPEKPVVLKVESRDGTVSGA

SMILES: Cc1nc(NC(=O)c2ccccc2)sc1-c1csc(NCCc2ccccc2)n1
EC50 [1]: 2.25 µM (active)
EC50 [2]: > 60 µM (not active)

AC50 (Cytochrome P450 2C19; read-out: AC50): 20 µM (inconclusive)
SMILES: CCn1c(SCC(=O)Nc2sc3c(c2C#N)CCC(C(C)(C)C)C3)nnc1-c1ccco1 (configuration not stated)

SMILES: CSc1nc(C)cc(OCC(=O)N/N=C/c2ccccc2O)n1
AC50 [3]: 3.38 µM (active)

AC50 (Cytochrome P450 3A4): 11.2 µM (inconclusive)
SMILES: CC1CCCC(NC(=O)C2CCN(S(=O)(=O)N3CCOCC3)CC2)C1C (configuration not stated)

AC50 (Cytochrome P450 3A4): 12.6 µM (inconclusive)
SMILES: COc1ccccc1/C=C/C=N/N1CCN(Cc2cccc3ccccc23)CC1

SMILES: Cc1cc(C)cc(Oc2ncnc3c2ncn3Cc2c(Cl)cccc2Cl)c1
EC50 [1]: 1.95 µM (active)
EC50 [2]: > 60 µM (not active)

SMILES: O=C(CCn1cnc(-c2ccccc2)c1-c1ccccc1)N/N=C/c1ccccc1O
EC50 [4]: 0.47 µM (active)
EC50 (Streptococcus): 2.13 µM (active)

AC50 (Cytochrome P450 3A4): 15.8 µM (inconclusive)
SMILES: O=c1c(-c2cccc(Cl)c2)nc2cncnc2n1Cc1ccc(F)cc1

AC50 (Cytochrome P450 3A4): 15.8 µM (inconclusive)
SMILES: COCC(=O)N1CCC2(CCN(Cc3ccncc3)CC2)CC1

SMILES: COc1ccc(N=C(S)NC(NC(=O)c2cccc3ccccc23)C(Cl)(Cl)Cl)c([N+](=O)[O-])c1 (configuration not stated)
EC50 [1]: 2.25 µM (active)
EC50 [2]: > 30 µM (not active)

AC50 (Cytochrome P450 1A2): 31.6 µM (inconclusive)
AC50 (Cytochrome P450 3A4): 31.6 µM (inconclusive)
SMILES: C[C@@H]1c2ccccc2CN1CC1=NCCN1

SMILES: Cn1c(=O)c2c(nc(C(=N)SCC(=O)O)n2C)n(C)c1=O
AC50 (Cytochrome P450 2C19): inconclusive

SMILES: CN1CCC(N(C)C(=O)c2ccccc2Nc2ccc(SC(F)F)cc2)CC1
EC50 [1]: 0.384 µM (active)
EC50 [2]: > 60 µM (not active)

SMILES: CC(C)(C)c1ccc(C(=O)Nc2ccc(N3CCOCC3)cc2)cc1
AC50 [3]: 4.04 µM (active)

SMILES: CN1CCN(C(=O)COc2ccc(S(=O)(=O)Nc3ccc(F)cc3)cc2)CC1
EC50 [1]: 0.142 µM (active)
EC50 [2]: > 60 µM (not active)

AC50 (Cytochrome P450 2C19; read-out: AC50): 14.1 µM (inconclusive)
SMILES: c1csc(CNCCCN2CCOCC2)c1

AC50 (Cytochrome P450 3A4): 31.6 µM (inconclusive)
SMILES: CC(=O)Nc1ccc(S(=O)(=O)NC(CC(=O)NCCCN2CCOCC2)C(C)C)cc1 (configuration not stated)

AC50 (Cytochrome P450 2C19; read-out: AC50): 39.8 µM (inconclusive)
SMILES: Cc1cccc(CNc2ncnc3ccc(-c4cccnc4)cc23)c1

AC50 (Cytochrome P450 2C19; read-out: AC50): 15.8 µM (inconclusive)
AC50 (Cytochrome P450 1A2): 15.8 µM (inconclusive)
AC50 (Cytochrome P450 3A4): 3.98 µM (inconclusive)
SMILES: Cn1cccc1C(=O)N1CCC2(CCCN(Cc3ccncc3)C2)CC1

SMILES: COc1ccc(CCn2c(SCCN3CCCCC3)nc3ccccc3c2=O)cc1OC
EC50 [1]: 0.936 µM (active)
EC50 [2]: > 60 µM (not active)

AC50 (Cytochrome P450 1A2): 5.01 µM (inconclusive)
SMILES: O=S(=O)(NCc1cn2ccsc2n1)c1ccc(Oc2ccccc2)cc1

SMILES: O=C(c1ccc2c(c1)OCO2)C1CCCN(C2CCN(CCc3ccccc3)CC2)C1 (configuration not stated)
EC50 [1]: 1.72 µM (active)
EC50 [2]: > 60 µM (not active)

SMILES: O=C(N/N=C/c1cc([N+](=O)[O-])ccc1O)c1c[nH]c2ccccc12
AC50 [3]: 6.85 µM (active)

SMILES: COc1ccc(/C=N\N=C(N)N)cc1
EC50 [1]: 0.854 µM (active)
EC50 [2]: > 60 µM (not active)

SMILES: O=C(Nc1cc(Sc2nc3ccccc3s2)cc([N+](=O)[O-])c1)c1ccccc1
EC50 [1]: 1.42 µM (active)
EC50 [2]: > 60 µM (not active)

AC50 (Cytochrome P450 2C19; read-out: AC50): 7.94 µM (inconclusive)
SMILES: Cc1nc2cnc(Oc3cccc(Cl)c3)nc2n(CCc2ccccc2)c1=O

AC50 (Cytochrome P450 2C19; read-out: AC50): 11.2 µM (inconclusive)
AC50 (Cytochrome P450 3A4): 25.1 µM (inconclusive)
SMILES: COc1ccc(Cl)cc1C(=O)Nn1cnc2ccccc2c1=O

AC50 (Cytochrome P450 2C19; read-out: AC50): 28.2 µM (inconclusive)
AC50 (Cytochrome P450 1A2): 6.31 µM (inconclusive)
SMILES: COCC(=O)Oc1c(S(=O)(=O)c2ccc(C)cc2)c(C)nn1-c1ccccc1

AC50 (Cytochrome P450 2C19): inconclusive
SMILES: CN(C)C(=N)NCCC[C@H](N)C(=O)O

SMILES: CCN(CC)S(=O)(=O)c1ccc2c(c1)c(=O)c(C(=O)NCCN(C)CCc1ccccc1)cn2C
EC50 [1]: 0.991 µM (active)
EC50 [2]: > 60 µM (not active)

AC50 (Cytochrome P450 2C19; read-out: AC50): 25.1 µM (inconclusive)
SMILES: CN(Cc1ccco1)c1ccnc(-c2cccc(NS(C)(=O)=O)c2)n1

SMILES: C=CCN1C[C@H](C)N([C@H](c2ccc(C(=O)N(CC)CC)cc2)c2cccc(O)c2)C[C@H]1C
AC50 (Cytochrome P450 1A2): 39.8 µM (inconclusive)

AC50 (Cytochrome P450 1A2): 20 µM (inconclusive)
SMILES: Clc1ccccc1-c1nc(NC2CCNCC2)c2ccccc2n1

SMILES: O=C(O)C(Cc1ccccc1)Cc1ccccc1
AC50 (Cytochrome P450 1A2): 0.00501 µM (inconclusive)

SMILES: CC(C)(C)C1CCC(OCC(O)CN2CCN(Cc3ccccc3)CC2)CC1 (configuration not stated)
EC50 [1]: 1.15 µM (active)
EC50 [2]: > 60 µM (not active)

SMILES: N#C/C(=C(/O)c1ccc2c(c1)OCO2)c1nc2cc(C(F)(F)F)ccc2s1
EC50 [4]: 2.89 µM (active)
EC50 (Streptococcus): 4.33 µM (active)

SMILES: COc1cccc(CC2(CO)CCCN(Cc3ccc(-c4ccco4)cc3)C2)c1 (configuration not stated)
EC50 [1]: 0.621 µM (active)
EC50 [2]: > 60 µM (not active)

SMILES: CN1CCN(Cc2nc3cccc4c3c([n+]2[O-])-c2ccccc2-4)CC1
AC50 (Cytochrome P450 3A4): 3.98 µM (inconclusive)

AC50 (Cytochrome P450 2C19): inconclusive
SMILES: O[C@@H]1[C@@H](OCc2ccccc2)OC[C@H](O)[C@@H]1O

SMILES: O=C(NC1CCCN(CCc2ccccc2)C1)C1CCCC1 (configuration not stated)
EC50 [1]: 1.3 µM (active)
EC50 [2]: > 60 µM (not active)

AC50 (Cytochrome P450 2C19; read-out: AC50): 3.16 µM (inconclusive)
SMILES: COc1ccc(Oc2nc3ccccc3nc2C(F)(F)F)cc1

SMILES: CN1CCN(CC(O)COCCOc2ccc(Br)cc2)CC1 (configuration not stated)
EC50 [1]: 0.542 µM (active)
EC50 [2]: > 60 µM (not active)

SMILES: Cc1nc2c(-c3ccccc3)cnn2c(O)c1Cc1ccccc1
EC50 [1]: 2.22 µM (active)
EC50 [2]: 14.6 µM (active)

AC50 (Cytochrome P450 2C19): inconclusive
SMILES: C[C@@H]1/C=C\CC(=O)OC[C@H](C)C(=O)N[C@@H](C)C(=O)OC1

AC50 (Cytochrome P450 3A4): 25.1 µM (inconclusive)
SMILES: Cc1nnc(-c2cnn(-c3ccccc3)c2N)n1Cc1ccc(F)cc1

AC50 (Cytochrome P450 2C19; read-out: AC50): 20 µM (inconclusive)
SMILES: CC(=O)NCCNc1ncncc1-c1ccc(N(C)C)cc1

SMILES: Cc1ccc(-n2cc(CN(C)Cc3ncc[nH]3)c(-c3cccc(C)c3)n2)cc1
EC50 [1]: 1.16 µM (active)
EC50 [2]: > 60 µM (not active)

AC50 (Cytochrome P450 3A4): 2.82 µM (inconclusive)
SMILES: CCCOc1ccc(/C=C/C(=O)Nc2ccc([N+](=O)[O-])cc2C)cc1OC

SMILES: CC(=O)Nc1ccc(/C(C)=N/Nc2nc(Nc3ccccc3)nc(N3CCOCC3)n2)cc1
EC50 [1]: 0.345 µM (active)
EC50 [2]: 50.7 µM (active)

SMILES: Cc1nn(-c2ccc(F)cc2)c2nc(N)c(C#N)c(-c3ccc(O)c(O)c3)c12
EC50 [1]: 2.04 µM (active)
EC50 [2]: 15.6 µM (active)

SMILES: CC(C)CC(=O)O/N=C1\C(=O)N(Cc2ccc(Cl)cc2)c2ccc([N+](=O)[O-])cc21
EC50 [1]: 4.6 µM (active)

AC50 (Cytochrome P450 2C19; read-out: AC50): 2 µM (inconclusive)
AC50 (Cytochrome P450 1A2): 25.1 µM (inconclusive)
SMILES: N#Cc1cccc(NC(=O)N2CC3(CCN(C(=O)c4ccco4)CC3)C2)c1

AC50 (Cytochrome P450 2C19; read-out: AC50): 6.31 µM (inconclusive)
SMILES: O[C@@H](c1cc(-c2ccc(Cl)cc2)nc2ccccc12)[C@@H]1CCCCN1

SMILES: CC(C)[C@@H]1CN[C@H](C(=O)O)[C@@H]1CC(=O)O
AC50 (Cytochrome P450 1A2): 39.8 µM (inconclusive)

AC50 (Cytochrome P450 2C19; read-out: AC50): 39.8 µM (inconclusive)
AC50 (Cytochrome P450 1A2): 31.6 µM (inconclusive)
AC50 (Cytochrome P450 3A4): 12.6 µM (inconclusive)
SMILES: Cn1cccc1C(=O)N1CCC[C@@]2(CCN(c3ccccn3)C2)C1

SMILES: O[C@@H]1[C@@H]2c3cc4c(cc3CN3CCC(=C[C@@H]1O)[C@H]23)OCO4
AC50 (Cytochrome P450 1A2): 15.8 µM (inconclusive)

AC50 (Cytochrome P450 1A2): 39.8 µM (inconclusive)
SMILES: N=C(C[C@@H](O)COc1ccccc1-c1ccccc1)N1CCCCC1

SMILES: CCOC(=O)Nc1ccc2c(c1)N(C(=O)CCN1CCOCC1)c1ccccc1S2 [MORICIZINE]
EC50 [1]: 5.85 µM (active)
EC50 [2]: > 60 µM (not active)
